Measured values taken from ChEMBL document CHEMBL4507272 (2021).

Tests used:
[1] = molecular target: Serine/threonine-protein kinase RIO2 (Homo sapiens) (UniProt Q9BVS4); conditions: Compound concentration 1000.0 nM
[2] = molecular target: Serine/threonine-protein kinase TAO2 (Homo sapiens) (UniProt Q9UL54); conditions: Compound concentration 1000.0 nM
[3] = molecular target: Inhibitor of nuclear factor kappa-B kinase subunit alpha (Homo sapiens) (UniProt O15111); conditions: Compound concentration 1000.0 nM
Sequence of Inhibitor of nuclear factor kappa-B kinase subunit alpha (Homo sapiens) (O15111 whole entry): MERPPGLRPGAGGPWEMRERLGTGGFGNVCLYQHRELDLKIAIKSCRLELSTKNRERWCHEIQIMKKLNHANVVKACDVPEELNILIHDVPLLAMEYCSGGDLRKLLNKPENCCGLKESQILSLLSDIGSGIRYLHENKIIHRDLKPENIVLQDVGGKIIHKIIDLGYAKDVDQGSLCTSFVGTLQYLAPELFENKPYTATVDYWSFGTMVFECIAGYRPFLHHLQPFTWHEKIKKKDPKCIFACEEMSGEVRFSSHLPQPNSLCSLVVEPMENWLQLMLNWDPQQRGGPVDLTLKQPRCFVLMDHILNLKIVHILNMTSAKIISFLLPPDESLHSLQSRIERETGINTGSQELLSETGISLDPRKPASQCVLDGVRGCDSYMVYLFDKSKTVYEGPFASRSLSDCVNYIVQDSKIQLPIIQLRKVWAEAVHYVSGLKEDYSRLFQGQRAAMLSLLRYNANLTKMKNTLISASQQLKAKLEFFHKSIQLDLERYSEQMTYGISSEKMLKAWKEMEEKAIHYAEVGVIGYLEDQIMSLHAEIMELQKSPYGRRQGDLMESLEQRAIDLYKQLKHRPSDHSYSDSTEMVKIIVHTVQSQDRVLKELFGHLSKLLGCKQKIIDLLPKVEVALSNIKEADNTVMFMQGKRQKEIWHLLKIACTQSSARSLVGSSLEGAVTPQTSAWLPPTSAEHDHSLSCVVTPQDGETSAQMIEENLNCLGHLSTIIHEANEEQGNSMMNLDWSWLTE

[4] = molecular target: Serine/threonine-protein kinase ULK1 (Homo sapiens) (UniProt O75385); conditions: Compound concentration 1000.0 nM
[5] = molecular target: Sodium-dependent dopamine transporter (Homo sapiens) (UniProt Q01959); conditions: Compound concentration 10.0 uM
[6] = molecular target: Ephrin type-A receptor 8 (Homo sapiens) (UniProt P29322); conditions: Compound concentration 1000.0 nM
[7] = molecular target: Cyclin-dependent kinase 2 homolog (Plasmodium falciparum (isolate 3D7)) (UniProt P61075); conditions: Compound concentration 1000.0 nM
Sequence of Cyclin-dependent kinase 2 homolog (Plasmodium falciparum (isolate 3D7)) (P61075 whole entry): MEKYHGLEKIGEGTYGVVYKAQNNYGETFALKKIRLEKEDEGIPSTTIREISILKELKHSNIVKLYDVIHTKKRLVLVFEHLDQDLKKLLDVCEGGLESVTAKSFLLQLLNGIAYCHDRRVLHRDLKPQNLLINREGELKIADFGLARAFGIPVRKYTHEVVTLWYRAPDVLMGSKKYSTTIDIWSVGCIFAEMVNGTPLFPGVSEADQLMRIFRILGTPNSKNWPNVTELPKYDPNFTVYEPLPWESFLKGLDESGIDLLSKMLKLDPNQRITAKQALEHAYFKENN

[8] = molecular target: Phosphatidylinositol 4-phosphate 5-kinase type-1 alpha (Homo sapiens) (UniProt Q99755); conditions: Compound concentration 1000.0 nM
[9] = molecular target: Tyrosine-protein kinase BTK (Homo sapiens) (UniProt Q06187); conditions: Compound concentration 1000.0 nM
[10] = molecular target: Serine/threonine-protein kinase 26 (Homo sapiens) (UniProt Q9P289); conditions: Compound concentration 1000.0 nM
[11] = molecular target: GABA-A receptor; anion channel (Rattus norvegicus) (UniProt O09028+P15431+P18506+P18508+P19969+P20236+P23574+P23576+P28471+P28473+P30191+P62813+P63079+P63138+Q91ZM7+Q9ES14); conditions: Compound concentration 10.0 uM
[12] = molecular target: Serine/threonine-protein kinase ULK2 (Homo sapiens) (UniProt Q8IYT8); conditions: Compound concentration 1000.0 nM
[13] = molecular target: Receptor-interacting serine/threonine-protein kinase 4 (Homo sapiens) (UniProt P57078); conditions: Compound concentration 1000.0 nM
[14] = molecular target: cGMP-dependent protein kinase 1 (Homo sapiens) (UniProt Q13976); conditions: Compound concentration 1000.0 nM
Sequence of cGMP-dependent protein kinase 1 (Homo sapiens) (Q13976 whole entry): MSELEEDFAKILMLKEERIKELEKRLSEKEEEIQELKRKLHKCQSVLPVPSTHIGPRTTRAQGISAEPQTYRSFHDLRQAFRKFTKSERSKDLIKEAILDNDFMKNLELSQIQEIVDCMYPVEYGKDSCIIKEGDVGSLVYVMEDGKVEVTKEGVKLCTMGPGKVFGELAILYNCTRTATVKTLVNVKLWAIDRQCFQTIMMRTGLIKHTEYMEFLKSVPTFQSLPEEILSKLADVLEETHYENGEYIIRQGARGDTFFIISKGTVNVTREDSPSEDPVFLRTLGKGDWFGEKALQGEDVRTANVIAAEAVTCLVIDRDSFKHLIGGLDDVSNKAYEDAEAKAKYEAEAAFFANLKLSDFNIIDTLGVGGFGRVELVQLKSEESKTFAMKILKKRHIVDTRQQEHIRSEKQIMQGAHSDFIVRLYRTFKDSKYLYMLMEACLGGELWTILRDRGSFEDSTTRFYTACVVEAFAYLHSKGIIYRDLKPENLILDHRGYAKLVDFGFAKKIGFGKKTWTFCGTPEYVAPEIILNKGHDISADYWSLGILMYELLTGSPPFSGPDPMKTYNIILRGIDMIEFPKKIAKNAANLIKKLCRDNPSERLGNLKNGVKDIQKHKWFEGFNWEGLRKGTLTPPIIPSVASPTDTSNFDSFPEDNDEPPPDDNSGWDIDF

[15] = molecular target: Inhibitor of nuclear factor kappa-B kinase subunit epsilon (Homo sapiens) (UniProt Q14164); conditions: Compound concentration 1000.0 nM
[16] = molecular target: cAMP-dependent protein kinase catalytic subunit beta (Homo sapiens) (UniProt P22694); conditions: Compound concentration 1000.0 nM
[17] = molecular target: Calcium/calmodulin-dependent protein kinase kinase 1 (Homo sapiens) (UniProt Q8N5S9); conditions: Compound concentration 1000.0 nM
[18] = molecular target: Serine/threonine-protein kinase PAK 1 (Homo sapiens) (UniProt Q13153); conditions: Compound concentration 1000.0 nM
[19] = system: Phosphatidylinositol 4,5-bisphosphate 3-kinase catalytic subunit alpha isoform (Homo sapiens), P42336 [Q546K]; conditions: Compound concentration 1000.0 nM
[20] = molecular target: Phosphatidylinositol 4-phosphate 3-kinase C2 domain-containing subunit beta (Homo sapiens) (UniProt O00750); conditions: Compound concentration 1000.0 nM
Sequence of Phosphatidylinositol 4-phosphate 3-kinase C2 domain-containing subunit beta (Homo sapiens) (O00750 whole entry, the tested form may be a part): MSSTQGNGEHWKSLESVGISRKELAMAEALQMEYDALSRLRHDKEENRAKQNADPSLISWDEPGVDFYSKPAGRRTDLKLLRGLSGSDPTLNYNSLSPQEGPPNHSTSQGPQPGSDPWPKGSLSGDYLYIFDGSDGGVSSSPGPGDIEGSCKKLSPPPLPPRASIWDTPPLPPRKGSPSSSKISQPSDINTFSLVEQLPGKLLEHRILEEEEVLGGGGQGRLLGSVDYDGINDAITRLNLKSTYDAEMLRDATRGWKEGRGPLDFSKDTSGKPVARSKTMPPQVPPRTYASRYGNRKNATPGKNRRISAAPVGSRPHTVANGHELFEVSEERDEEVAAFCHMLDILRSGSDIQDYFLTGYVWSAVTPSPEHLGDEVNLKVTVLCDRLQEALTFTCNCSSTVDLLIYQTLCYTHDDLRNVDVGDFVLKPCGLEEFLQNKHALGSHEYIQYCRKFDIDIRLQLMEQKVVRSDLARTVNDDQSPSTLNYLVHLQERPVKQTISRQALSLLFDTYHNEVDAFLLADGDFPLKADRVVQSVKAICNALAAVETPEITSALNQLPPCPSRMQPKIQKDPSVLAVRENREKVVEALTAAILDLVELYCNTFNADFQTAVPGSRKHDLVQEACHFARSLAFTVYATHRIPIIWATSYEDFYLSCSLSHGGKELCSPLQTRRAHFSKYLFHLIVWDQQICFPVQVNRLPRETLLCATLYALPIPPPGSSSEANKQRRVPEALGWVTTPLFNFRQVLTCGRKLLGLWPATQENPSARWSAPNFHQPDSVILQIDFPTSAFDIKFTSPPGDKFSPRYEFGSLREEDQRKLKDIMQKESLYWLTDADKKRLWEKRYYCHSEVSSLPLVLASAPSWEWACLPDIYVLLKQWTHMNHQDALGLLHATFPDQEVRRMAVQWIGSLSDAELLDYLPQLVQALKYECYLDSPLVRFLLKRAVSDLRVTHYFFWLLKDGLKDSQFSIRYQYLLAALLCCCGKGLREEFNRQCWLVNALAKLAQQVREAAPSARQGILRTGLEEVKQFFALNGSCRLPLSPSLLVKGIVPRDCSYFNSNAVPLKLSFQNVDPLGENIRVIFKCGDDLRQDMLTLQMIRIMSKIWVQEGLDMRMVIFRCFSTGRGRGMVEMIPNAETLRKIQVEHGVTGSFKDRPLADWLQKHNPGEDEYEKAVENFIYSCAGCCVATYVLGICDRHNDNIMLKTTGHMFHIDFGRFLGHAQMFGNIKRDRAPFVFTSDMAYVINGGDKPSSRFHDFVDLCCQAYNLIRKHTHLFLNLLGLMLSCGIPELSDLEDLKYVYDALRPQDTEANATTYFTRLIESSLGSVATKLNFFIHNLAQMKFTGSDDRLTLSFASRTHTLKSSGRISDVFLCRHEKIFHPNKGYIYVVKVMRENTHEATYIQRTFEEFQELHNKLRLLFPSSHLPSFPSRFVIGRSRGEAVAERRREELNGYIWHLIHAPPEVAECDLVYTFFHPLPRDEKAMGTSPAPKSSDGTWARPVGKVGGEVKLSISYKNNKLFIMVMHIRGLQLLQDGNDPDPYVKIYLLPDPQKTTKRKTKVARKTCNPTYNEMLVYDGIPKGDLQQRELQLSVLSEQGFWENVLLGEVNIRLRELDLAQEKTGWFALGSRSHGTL

[21] = molecular target: Leucine-rich repeat serine/threonine-protein kinase 2 (Homo sapiens) (UniProt Q5S007); conditions: Compound concentration 1000.0 nM
[22] = molecular target: Mitogen-activated protein kinase kinase kinase 10 (Homo sapiens) (UniProt Q02779); conditions: Compound concentration 1000.0 nM
[23] = molecular target: Mitogen-activated protein kinase kinase kinase 6 (Homo sapiens) (UniProt O95382); conditions: Compound concentration 1000.0 nM
[24] = molecular target: Dual specificity mitogen-activated protein kinase kinase 5 (Homo sapiens) (UniProt Q13163); conditions: Compound concentration 1000.0 nM
Sequence of Dual specificity mitogen-activated protein kinase kinase 5 (Homo sapiens) (Q13163 whole entry, canonical isoform): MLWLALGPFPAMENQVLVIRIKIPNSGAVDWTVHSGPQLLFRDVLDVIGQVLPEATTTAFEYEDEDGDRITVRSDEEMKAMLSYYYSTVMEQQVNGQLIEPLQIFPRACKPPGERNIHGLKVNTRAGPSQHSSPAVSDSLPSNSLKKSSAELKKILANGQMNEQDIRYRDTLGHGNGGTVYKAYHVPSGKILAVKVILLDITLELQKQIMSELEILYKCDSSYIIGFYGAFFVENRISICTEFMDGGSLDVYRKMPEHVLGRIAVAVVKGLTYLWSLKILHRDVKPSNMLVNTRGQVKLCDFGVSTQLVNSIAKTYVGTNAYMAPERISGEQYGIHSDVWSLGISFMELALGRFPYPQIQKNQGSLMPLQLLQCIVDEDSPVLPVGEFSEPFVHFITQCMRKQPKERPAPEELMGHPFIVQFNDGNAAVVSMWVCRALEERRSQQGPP

[25] = molecular target: Casein kinase I isoform alpha (Homo sapiens) (UniProt P48729); conditions: Compound concentration 1000.0 nM
[26] = molecular target: Serine/threonine-protein kinase PLK4 (Homo sapiens) (UniProt O00444); conditions: Compound concentration 1000.0 nM
[27] = molecular target: Serine/threonine-protein kinase D1 (Homo sapiens) (UniProt Q15139); conditions: Compound concentration 1000.0 nM
[28] = system: Receptor-type tyrosine-protein kinase FLT3 (Homo sapiens), P36888 [D835V]; conditions: Compound concentration 1000.0 nM
[29] = molecular target: Macrophage colony-stimulating factor 1 receptor (Homo sapiens) (UniProt P07333); conditions: Compound concentration 1000.0 nM
[30] = molecular target: Non-receptor tyrosine-protein kinase TYK2 (Homo sapiens) (UniProt P29597); conditions: Compound concentration 1000.0 nM
[31] = molecular target: LIM domain kinase 1 (Homo sapiens) (UniProt P53667); conditions: Compound concentration 1000.0 nM
[32] = system: Tyrosine-protein kinase ABL1 (Homo sapiens), P00519 [F317I]; conditions: Compound concentration 1000.0 nM
[33] = system: Serine/threonine-protein kinase B-raf (Homo sapiens), P15056 [V600E]; conditions: Compound concentration 1000.0 nM
[34] = molecular target: Mitogen-activated protein kinase 6 (Homo sapiens) (UniProt Q16659); conditions: Compound concentration 1000.0 nM
[35] = molecular target: Rhodopsin kinase GRK1 (Homo sapiens) (UniProt Q15835); conditions: Compound concentration 1000.0 nM
[36] = molecular target: 5-hydroxytryptamine receptor 2C (Homo sapiens) (UniProt P28335); conditions: Compound concentration 10.0 uM
Sequence of 5-hydroxytryptamine receptor 2C (Homo sapiens) (P28335 whole entry, canonical isoform): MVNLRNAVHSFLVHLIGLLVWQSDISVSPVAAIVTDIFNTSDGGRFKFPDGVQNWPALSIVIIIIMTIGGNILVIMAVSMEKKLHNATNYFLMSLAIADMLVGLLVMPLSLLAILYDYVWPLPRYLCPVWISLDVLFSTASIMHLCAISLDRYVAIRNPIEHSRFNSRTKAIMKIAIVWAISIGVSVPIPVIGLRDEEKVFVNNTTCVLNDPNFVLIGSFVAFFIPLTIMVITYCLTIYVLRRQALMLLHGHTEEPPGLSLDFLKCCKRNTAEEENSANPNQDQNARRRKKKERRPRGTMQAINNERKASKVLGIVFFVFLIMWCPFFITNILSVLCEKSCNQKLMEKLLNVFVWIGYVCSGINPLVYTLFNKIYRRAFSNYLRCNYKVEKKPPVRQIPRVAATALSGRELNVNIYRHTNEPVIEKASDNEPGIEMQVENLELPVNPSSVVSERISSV

[37] = system: Phosphatidylinositol 4,5-bisphosphate 3-kinase catalytic subunit alpha isoform (Homo sapiens), P42336 [M1043I]; conditions: Compound concentration 1000.0 nM
[38] = molecular target: SRSF protein kinase 2 (Homo sapiens) (UniProt P78362); conditions: Compound concentration 1000.0 nM
[39] = molecular target: Phosphatidylinositol 4-phosphate 5-kinase type-1 gamma (Homo sapiens) (UniProt O60331); conditions: Compound concentration 1000.0 nM
[40] = molecular target: Cyclin-dependent kinase-like 3 (Homo sapiens) (UniProt Q8IVW4); conditions: Compound concentration 1000.0 nM
[41] = molecular target: Mitogen-activated protein kinase kinase kinase 7 (Homo sapiens) (UniProt O43318); conditions: Compound concentration 1000.0 nM
Sequence of Mitogen-activated protein kinase kinase kinase 7 (Homo sapiens) (O43318 whole entry): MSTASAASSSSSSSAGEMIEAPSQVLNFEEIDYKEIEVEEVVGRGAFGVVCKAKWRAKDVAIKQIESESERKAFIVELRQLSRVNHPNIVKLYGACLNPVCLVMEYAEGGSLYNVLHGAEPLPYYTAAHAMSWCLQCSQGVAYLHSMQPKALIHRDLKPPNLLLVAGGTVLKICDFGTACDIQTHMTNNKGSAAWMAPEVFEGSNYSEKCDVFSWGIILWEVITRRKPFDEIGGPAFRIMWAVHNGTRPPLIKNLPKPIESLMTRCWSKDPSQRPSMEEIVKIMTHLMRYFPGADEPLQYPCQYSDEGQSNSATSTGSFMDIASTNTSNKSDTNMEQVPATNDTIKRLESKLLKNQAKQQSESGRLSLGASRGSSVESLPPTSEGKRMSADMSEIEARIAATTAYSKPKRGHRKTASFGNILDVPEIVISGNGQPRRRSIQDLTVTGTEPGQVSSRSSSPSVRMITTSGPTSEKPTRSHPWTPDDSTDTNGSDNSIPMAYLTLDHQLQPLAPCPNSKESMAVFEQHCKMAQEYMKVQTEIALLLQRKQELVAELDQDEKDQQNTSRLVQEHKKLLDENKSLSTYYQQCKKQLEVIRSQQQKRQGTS

[42] = molecular target: 5-hydroxytryptamine receptor 6 (Homo sapiens) (UniProt P50406); conditions: Compound concentration 10.0 uM
[43] = molecular target: STE20/SPS1-related proline-alanine-rich protein kinase (Homo sapiens) (UniProt Q9UEW8); conditions: Compound concentration 1000.0 nM

CC(=O)C1=C(C)N(c2cccc(C(F)(F)F)c2)C(=O)N[C@@H]1c1ccc(C#N)nc1 [BAY-678]
residual activity [1]: 98% | residual activity [2]: 94.4% | residual activity [3]: 100% | residual activity [4]: 100% | inhibition [5]: -0.342% | residual activity [6]: 100% | residual activity [7]: 100% | residual activity [8]: 100% | residual activity [9]: 100% | residual activity [10]: 100% | inhibition [11]: 9.75% | residual activity [12]: 100% | residual activity [13]: 100% | residual activity [14]: 45.5% | residual activity [15]: 98.2% | residual activity [16]: 48.7% | residual activity [17]: 100% | residual activity [18]: 91.2% | residual activity [19]: 100% | residual activity [20]: 100% | residual activity [21]: 80.7% | residual activity [22]: 92.1% | residual activity [23]: 91.2% | residual activity [24]: 100% | residual activity [25]: 91.5% | residual activity [26]: 82.7% | residual activity [27]: 95.7% | residual activity [28]: 64.2% | residual activity [29]: 99.4% | residual activity [30]: 94.9% | residual activity [31]: 70.2% | residual activity [32]: 100% | residual activity [33]: 100% | residual activity [34]: 75.8% | residual activity [35]: 99.2% | inhibition [36]: -2.88% | residual activity [37]: 100% | residual activity [38]: 100% | residual activity [39]: 100% | residual activity [40]: 98.5% | residual activity [41]: 100% | inhibition [42]: -6.02% | residual activity [43]: 90.8%
